Values of other authors, collected in US6718687B2 (priority 2002, dated 2004).

System: mosquitoes

## C=CC(O)CCCCC (centres unmarked) [Octenol, 1-octen-3-oL]
Octenol and CO2 versus CO2 alone
  results from traps baited with Octenol and CO2 compared with CO2 alone: not significant
Octenol at the release rate tested, unless CO2 was also used
  effectiveness as attractant for mosquitoes: not an effective attractant
